From ChEMBL document CHEMBL1201862, “PubChem BioAssay data set” (2004)
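Grown in 96-well plates, cells were treated for 48 hours with each compound at five concentrations. Insufficient inhibition: endpoint recorded as highest concentration tested. Here, GI50 denotes the concentration required for 50% inhibition of growth.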 The source made the active and inactive calls. No stated cut-off is given here; in the data, active = GI50 up to about 1.1 µM and inactive = higher.

Columns and labels:
Assay in all cases: growth of human tumour cells (NCI), 48 h
786-0 = tested on: 786-0
A549 = tested on: A549
ACHN = tested on: ACHN
CAKI-1 = tested on: CAKI-1
CCRF-CEM = tested on: CCRF-CEM
COLO 205 = tested on: COLO 205
DLD-1 = tested on: DLD-1
DMS-114 = tested on: DMS-114
DMS-273 = tested on: DMS-273
EKVX = tested on: EKVX
HCC 2998 = tested on: HCC 2998
HCT-15 = tested on: HCT-15
HL-60 = tested on: HL-60
HOP-18 = tested on: HOP-18
HOP-62 = tested on: HOP-62
HOP-92 = tested on: HOP-92
HT-29 = tested on: HT-29
IGROV-1 = tested on: IGROV-1
K562 = tested on: K562
KM-20L2 = tested on: KM-20L2
KM12 = tested on: KM12
LOX IMVI = tested on: LOX IMVI
LXFL 529 = tested on: LXFL 529
M14 = tested on: M14
M19-MEL = tested on: M19-MEL
MOLT-4 = tested on: MOLT-4
Malme-3M = tested on: Malme-3M
NCI-H23 = tested on: NCI-H23
NCI-H460 = tested on: NCI-H460
NCI-H522 = tested on: NCI-H522
OVCAR-3 = tested on: OVCAR-3
OVCAR-4 = tested on: OVCAR-4
OVCAR-5 = tested on: OVCAR-5
OVCAR-8 = tested on: OVCAR-8
RPMI-8226 = tested on: RPMI-8226
RXF 393 = tested on: RXF 393
RXF 631 = tested on: RXF 631
SF-268 = tested on: SF-268
SF-295 = tested on: SF-295
SF-539 = tested on: SF-539
SK-MEL-28 = tested on: SK-MEL-28
SK-MEL-2 = tested on: SK-MEL-2
SK-MEL-5 = tested on: SK-MEL-5
SK-OV-3 = tested on: SK-OV-3
SN12C = tested on: SN12C
SNB-19 = tested on: SNB-19
SNB-75 = tested on: SNB-75
SW-620 = tested on: SW-620
TK-10 = tested on: TK-10
U-251 = tested on: U-251
UACC-257 = tested on: UACC-257
UACC-62 = tested on: UACC-62
UO-31 = tested on: UO-31
A498 = tested on: A498
HCT-116 = tested on: HCT-116
NCI-H226 = tested on: NCI-H226
SNB-78 = tested on: SNB-78
SR = tested on: SR
XF498 = tested on: XF498

Q: Which results are given for CCn1cc(/C=C/C(C)c2cn(CC)c(=O)[nH]c2=O)c(=O)[nH]c1=O (stereo unspecified)?
A: GI50 (786-0): > 100 µM (inactive); GI50 (A549): > 100 µM (inactive); GI50 (ACHN): > 100 µM (inactive); GI50 (CAKI-1): > 100 µM (inactive); GI50 (CCRF-CEM): > 100 µM (inactive); GI50 (COLO 205): > 100 µM (inactive); GI50 (DLD-1): > 100 µM (inactive); GI50 (DMS-114): > 100 µM (inactive); GI50 (DMS-273): > 100 µM (inactive); GI50 (EKVX): > 100 µM (inactive); GI50 (HCC 2998): > 100 µM (inactive); GI50 (HCT-15): > 100 µM; GI50 (HL-60): > 100 µM (inactive); GI50 (HOP-18): > 100 µM (inactive); GI50 (HOP-62): > 100 µM (inactive); GI50 (HOP-92): 11.3 µM (inactive); GI50 (HT-29): > 100 µM (inactive); GI50 (IGROV-1): > 100 µM (inactive); GI50 (K562): > 100 µM (inactive); GI50 (KM-20L2): > 100 µM (inactive); GI50 (KM12): > 100 µM (inactive); GI50 (LOX IMVI): > 100 µM (inactive); GI50 (LXFL 529): > 100 µM (inactive); GI50 (M14): > 100 µM (inactive); GI50 (M19-MEL): > 100 µM (inactive); GI50 (MOLT-4): > 100 µM (inactive); GI50 (Malme-3M): > 100 µM (inactive); GI50 (NCI-H23): > 100 µM (inactive); GI50 (NCI-H460): > 100 µM (inactive); GI50 (NCI-H522): > 100 µM (inactive); GI50 (OVCAR-3): > 100 µM (inactive); GI50 (OVCAR-4): > 100 µM (inactive); GI50 (OVCAR-5): > 100 µM (inactive); GI50 (OVCAR-8): > 100 µM (inactive); GI50 (RPMI-8226): > 100 µM (inactive); GI50 (RXF 393): > 100 µM (inactive); GI50 (RXF 631): > 100 µM (inactive); GI50 (SF-268): > 100 µM (inactive); GI50 (SF-295): > 100 µM (inactive); GI50 (SF-539): > 100 µM (inactive); GI50 (SK-MEL-28): > 100 µM (inactive); GI50 (SK-MEL-2): > 100 µM (inactive); GI50 (SK-MEL-5): > 100 µM (inactive); GI50 (SK-OV-3): > 100 µM (inactive); GI50 (SN12C): > 100 µM (inactive); GI50 (SNB-19): > 100 µM (inactive); GI50 (SNB-75): 84.7 µM (inactive); GI50 (SW-620): > 100 µM (inactive); GI50 (TK-10): > 100 µM (inactive); GI50 (U-251): > 100 µM (inactive); GI50 (UACC-257): > 100 µM (inactive); GI50 (UACC-62): > 100 µM (inactive); GI50 (UO-31): > 100 µM (inactive)

Q: Which results are given for CC(=O)C(CN(CC(C)C)CC(C)C)C(c1ccccc1)c1c(O)c2ccccc2oc1=O (stereo unspecified)?
A: GI50 (786-0): > 100 µM (inactive); GI50 (A498): > 100 µM (inactive); GI50 (A549): > 100 µM (inactive); GI50 (ACHN): > 100 µM (inactive); GI50 (CAKI-1): > 100 µM (inactive); GI50 (CCRF-CEM): > 10 µM (inactive); GI50 (COLO 205): > 100 µM (inactive); GI50 (DLD-1): > 100 µM (inactive); GI50 (DMS-114): > 100 µM (inactive); GI50 (EKVX): > 100 µM (inactive); GI50 (HCC 2998): > 100 µM (inactive); GI50 (HCT-116): > 100 µM (inactive); GI50 (HCT-15): > 100 µM; GI50 (HL-60): > 100 µM (inactive); GI50 (HOP-62): > 100 µM (inactive); GI50 (HOP-92): > 100 µM (inactive); GI50 (HT-29): > 100 µM (inactive); GI50 (IGROV-1): > 100 µM (inactive); GI50 (K562): > 10 µM (inactive); GI50 (KM-20L2): > 100 µM (inactive); GI50 (LOX IMVI): > 100 µM (inactive); GI50 (LXFL 529): > 100 µM (inactive); GI50 (M14): > 100 µM (inactive); GI50 (M19-MEL): > 100 µM (inactive); GI50 (MOLT-4): > 100 µM (inactive); GI50 (Malme-3M): > 100 µM (inactive); GI50 (NCI-H226): > 100 µM (inactive); GI50 (NCI-H23): > 100 µM (inactive); GI50 (NCI-H522): > 100 µM (inactive); GI50 (OVCAR-3): > 100 µM (inactive); GI50 (OVCAR-4): > 100 µM (inactive); GI50 (OVCAR-5): > 100 µM (inactive); GI50 (OVCAR-8): > 100 µM (inactive); GI50 (RPMI-8226): > 100 µM (inactive); GI50 (RXF 393): > 100 µM (inactive); GI50 (RXF 631): > 100 µM (inactive); GI50 (SF-268): > 100 µM (inactive); GI50 (SF-295): > 100 µM (inactive); GI50 (SF-539): > 100 µM (inactive); GI50 (SK-MEL-28): > 100 µM (inactive); GI50 (SK-MEL-2): > 100 µM (inactive); GI50 (SK-OV-3): > 100 µM (inactive); GI50 (SN12C): > 100 µM (inactive); GI50 (SNB-19): > 100 µM (inactive); GI50 (SNB-75): > 100 µM (inactive); GI50 (SW-620): > 100 µM (inactive); GI50 (TK-10): > 100 µM (inactive); GI50 (UACC-257): > 100 µM (inactive); GI50 (UACC-62): > 100 µM (inactive)

Q: What does the source list for N#CC12Cc3cc4c(cc3-c3cccc(c31)CCN2C(=O)c1ccccc1)OCO4 (stereo unspecified)?
A: GI50 (786-0): > 10 µM (inactive); GI50 (A498): 53.3 µM (inactive); GI50 (A549): > 100 µM (inactive); GI50 (ACHN): > 100 µM (inactive); GI50 (CCRF-CEM): > 100 µM (inactive); GI50 (COLO 205): > 100 µM (inactive); GI50 (DLD-1): > 100 µM (inactive); GI50 (DMS-114): 83 µM (inactive); GI50 (DMS-273): > 100 µM (inactive); GI50 (EKVX): > 100 µM (inactive); GI50 (HCC 2998): > 100 µM (inactive); GI50 (HCT-116): > 100 µM (inactive); GI50 (HL-60): > 100 µM (inactive); GI50 (HOP-18): > 100 µM (inactive); GI50 (HOP-62): 53.8 µM (inactive); GI50 (HOP-92): 22.8 µM (inactive); GI50 (HT-29): > 100 µM (inactive); GI50 (IGROV-1): > 100 µM (inactive); GI50 (K562): > 100 µM (inactive); GI50 (KM-20L2): > 100 µM (inactive); GI50 (KM12): > 100 µM (inactive); GI50 (LOX IMVI): > 100 µM (inactive); GI50 (LXFL 529): > 100 µM (inactive); GI50 (M14): > 100 µM (inactive); GI50 (M19-MEL): > 100 µM (inactive); GI50 (MOLT-4): > 100 µM (inactive); GI50 (Malme-3M): > 100 µM (inactive); GI50 (NCI-H226): > 100 µM (inactive); GI50 (NCI-H23): > 100 µM (inactive); GI50 (NCI-H522): > 10 µM (inactive); GI50 (OVCAR-3): > 100 µM (inactive); GI50 (OVCAR-5): > 100 µM (inactive); GI50 (OVCAR-8): 65.3 µM (inactive); GI50 (RPMI-8226): > 100 µM (inactive); GI50 (RXF 393): 53.1 µM (inactive); GI50 (SF-268): > 100 µM (inactive); GI50 (SF-295): > 100 µM (inactive); GI50 (SF-539): > 100 µM (inactive); GI50 (SK-MEL-28): > 100 µM (inactive); GI50 (SK-MEL-2): > 100 µM (inactive); GI50 (SK-MEL-5): > 100 µM (inactive); GI50 (SK-OV-3): > 100 µM (inactive); GI50 (SN12C): > 100 µM (inactive); GI50 (SNB-19): 68.1 µM (inactive); GI50 (SNB-75): 21.6 µM (inactive); GI50 (SNB-78): 51.6 µM (inactive); GI50 (SR): > 100 µM (inactive); GI50 (SW-620): > 100 µM (inactive); GI50 (TK-10): > 100 µM (inactive); GI50 (U-251): > 100 µM (inactive); GI50 (UACC-257): > 100 µM (inactive); GI50 (UACC-62): > 100 µM (inactive); GI50 (UO-31): > 100 µM (inactive); GI50 (XF498): 24.2 µM (inactive)
